“And” between values parts separate entries of the source, which are not always exact repeats. Identical values can stand only once. Inconclusive results and toxic doses are left out.
System: CD2F1 mice, L1210 leukemia ip, survival T/C
Assay: NCI In Vivo Anticancer Drug Screen. Data for tumor model L1210 Leukemia (intraperitoneal) in CD2F1 (CDF1) mice
Conditions: higher = longer survival
Method in brief: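 Transplantable tumor in mice; compound-treated vs vehicle-treated groups. Read-out = treated/control ratio of the measured endpoint.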

[1] = endpoint: mean survival time, dose: 100.0 mg/kg/injection, schedule: Q04DX003 (ip), vehicle: saline with Tween-80
[2] = endpoint: mean survival time, dose: 200.0 mg/kg/injection, schedule: Q04DX003 (ip), vehicle: saline with Tween-80
[3] = endpoint: mean survival time, dose: 400.0 mg/kg/injection, schedule: Q04DX003 (ip), vehicle: saline with Tween-80
[4] = endpoint: mean survival time, dose: 100.0 mg/kg/injection, schedule: Q04DX003 (ip), vehicle: saline
[5] = endpoint: mean survival time, dose: 200.0 mg/kg/injection, schedule: Q04DX003 (ip), vehicle: saline
[6] = endpoint: mean survival time, dose: 100.0 mg/kg/injection, schedule: Q04DX002 (ip), vehicle: saline with Tween-80
[7] = endpoint: mean survival time, dose: 200.0 mg/kg/injection, schedule: Q04DX002 (ip), vehicle: saline with Tween-80
[8] = endpoint: mean survival time, dose: 50.0 mg/kg/injection, schedule: Q01DX009 (ip), vehicle: saline with Tween-80
[9] = endpoint: mean survival time, dose: 100.0 mg/kg/injection, schedule: Q01DX009 (ip), vehicle: saline with Tween-80
[10] = endpoint: mean survival time, dose: 200.0 mg/kg/injection, schedule: Q01DX009 (ip), vehicle: saline with Tween-80
[11] = endpoint: mean survival time, dose: 12.5 mg/kg/injection, schedule: Q04DX003 (ip), vehicle: saline with Tween-80
[12] = endpoint: mean survival time, dose: 25.0 mg/kg/injection, schedule: Q04DX003 (ip), vehicle: saline with Tween-80
[13] = endpoint: mean survival time, dose: 100.0 mg/kg/injection, schedule: Q01DX001 (ip), vehicle: saline
[14] = endpoint: mean survival time, dose: 200.0 mg/kg/injection, schedule: Q01DX001 (ip), vehicle: saline
[15] = endpoint: mean survival time, dose: 400.0 mg/kg/injection, schedule: Q01DX001 (ip), vehicle: saline
[16] = endpoint: mean survival time, dose: 100.0 mg/kg/injection, schedule: Q01DX001 (ip), vehicle: saline with Tween-80
[17] = endpoint: mean survival time, dose: 200.0 mg/kg/injection, schedule: Q01DX001 (ip), vehicle: saline with Tween-80
[18] = endpoint: mean survival time, dose: 400.0 mg/kg/injection, schedule: Q01DX001 (ip), vehicle: saline with Tween-80

## [N-]=[N+]=NC1CCOC(n2cnc3c(N)ncnc32)C1O (stereo not given)
endpoint: median survival time, dose: 25.0 mg/kg/injection, schedule: Q01DX005 (ip), vehicle: Klucel (hydroxypropylcellulose) (HPC)
  T/C: 102 % of control
endpoint: median survival time, dose: 25.0 mg/kg/injection, schedule: Q01DX005 (ip), vehicle: Klucel + Tween-80
  T/C: 101 % of control
endpoint: median survival time, dose: 50.0 mg/kg/injection, schedule: Q01DX005 (ip), vehicle: Klucel (hydroxypropylcellulose) (HPC)
  T/C: 100 % of control
endpoint: median survival time, dose: 50.0 mg/kg/injection, schedule: Q01DX005 (ip), vehicle: Klucel + Tween-80
  T/C: 101 % of control
endpoint: median survival time, dose: 100.0 mg/kg/injection, schedule: Q01DX005 (ip), vehicle: Klucel (hydroxypropylcellulose) (HPC)
  T/C: 108 % of control
endpoint: median survival time, dose: 100.0 mg/kg/injection, schedule: Q01DX005 (ip), vehicle: Klucel + Tween-80
  T/C: 102 % of control
endpoint: median survival time, dose: 200.0 mg/kg/injection, schedule: Q01DX005 (ip), vehicle: Klucel (hydroxypropylcellulose) (HPC)
  T/C: 102 % of control
endpoint: median survival time, dose: 200.0 mg/kg/injection, schedule: Q01DX005 (ip), vehicle: Klucel + Tween-80
  T/C: 102 % of control

## CCCCCC(=O)C(C)CC (stereo not given)
[1]
  T/C: 96 % of control
[2]
  T/C: 104 % of control
[3]
  T/C: 94 % of control

## CCCNC(=O)Nc1ccc(C(=O)OCC(C)C)cc1
[4]
  T/C: 93 % of control
[5]
  T/C: 95 % of control
endpoint: mean survival time, dose: 400.0 mg/kg/injection, schedule: Q04DX003 (ip), vehicle: saline
  T/C: 104 % of control

## CCOC(=O)C(=O)c1c(N)n(C)c(=O)n(C)c1=O
endpoint: mean survival time, dose: 6.25 mg/kg/injection, schedule: Q01DX009 (ip), vehicle: Klucel (hydroxypropylcellulose) (HPC)
  T/C: 112 % of control
endpoint: mean survival time, dose: 12.5 mg/kg/injection, schedule: Q01DX009 (ip), vehicle: Klucel (hydroxypropylcellulose) (HPC)
  T/C: 87 % of control
endpoint: mean survival time, dose: 25.0 mg/kg/injection, schedule: Q01DX009 (ip), vehicle: Klucel (hydroxypropylcellulose) (HPC)
  T/C: 102 % of control

## O=P1(N(CCCl)CCCl)OCCC(OO)N1CCCl (stereo not given)
endpoint: mean survival time, dose: 100.0 mg/kg/injection, schedule: Q01DX001 (ip), vehicle: DMSO
  T/C: 268 % of control
endpoint: mean survival time, dose: 100.0 mg/kg/injection, schedule: Q01DX001 (ip), vehicle: Klucel (hydroxypropylcellulose) (HPC)
  T/C: 281 % of control
endpoint: mean survival time, dose: 200.0 mg/kg/injection, schedule: Q01DX001 (ip), vehicle: Klucel (hydroxypropylcellulose) (HPC)
  T/C: 309 % of control
endpoint: mean survival time, dose: 400.0 mg/kg/injection, schedule: Q01DX001 (ip), vehicle: DMSO
  T/C: 163 % of control

## CC(C)(CCC(=O)O)C(=O)c1ccccc1
endpoint: mean survival time, dose: 50.0 mg/kg/injection, schedule: Q04DX002 (ip), vehicle: saline with Tween-80
  T/C: 98 % of control
[6]
  T/C: 94 % of control
[7]
  T/C: 94 % of control

## CC(=O)Nc1ncc2ccccc2c1-c1ccc(NC(=O)CN(CCO)CCO)cc1
endpoint: mean survival time, dose: 25.0 mg/kg/injection, schedule: Q04DX003 (ip), vehicle: other
  T/C: 104 % of control
endpoint: mean survival time, dose: 50.0 mg/kg/injection, schedule: Q04DX003 (ip), vehicle: other
  T/C: 108 % of control
endpoint: mean survival time, dose: 100.0 mg/kg/injection, schedule: Q04DX003 (ip), vehicle: other
  T/C: 100 % of control
endpoint: mean survival time, dose: 200.0 mg/kg/injection, schedule: Q04DX003 (ip), vehicle: other
  T/C: 96 % of control
endpoint: mean survival time, dose: 400.0 mg/kg/injection, schedule: Q04DX003 (ip), vehicle: other
  T/C: 104 % of control

## CN(C)c1ccc(/C=N/NC(=O)CNC(=O)Nc2cccc(C(F)(F)F)c2)c(Cl)c1
[8]
  T/C: 88 % of control
[9]
  T/C: 88 % of control
[10]
  T/C: 88 % of control

## Cc1cccc2c(CBr)cc(=O)[nH]c12
[11]
  T/C: 101 % of control
[12]
  T/C: 101 % of control
endpoint: mean survival time, dose: 50.0 mg/kg/injection, schedule: Q04DX003 (ip), vehicle: saline with Tween-80
  T/C: 101 % of control

## CC1=NNC2c3ccccc3-c3ccccc3N2C1 (stereo not given)
[13]
  T/C: 94 % of control
[14]
  T/C: 93 % of control
[15]
  T/C: 98 % of control

## COc1ccc(/C(C)=N\NC(=O)c2ccccc2)cc1
[8]
  T/C: 91 % of control
[9]
  T/C: 94 % of control
[1]
  T/C: 98 % of control
[10]
  T/C: 89 % of control
[2]
  T/C: 104 % of control

## Cc1cc(=O)n(C2CCCCC2)c(=NC2CCCCC2)o1
[6]
  T/C: 100 % of control
[7]
  T/C: 95 % of control
endpoint: mean survival time, dose: 400.0 mg/kg/injection, schedule: Q04DX002 (ip), vehicle: saline with Tween-80
  T/C: 95 % of control

## CN(Cc1ccccc1)N=Nc1ccc(C#N)cc1
[9]
  T/C: 104 % of control
[10]
  T/C: 112 % of control
endpoint: mean survival time, dose: 400.0 mg/kg/injection, schedule: Q01DX009 (ip), vehicle: saline with Tween-80
  T/C: 112 % of control

## Cc1cn(C2CC(O)C(CO)O2)c(=O)[n]([Hg][c]2ccccc2)c1=O (stereo not given)
endpoint: median survival time, dose: 0.79 mg/kg/injection, schedule: Q01DX005 (ip), vehicle: saline
  T/C: 110 % of control
endpoint: median survival time, dose: 1.56 mg/kg/injection, schedule: Q01DX005 (ip), vehicle: saline
  T/C: 103 % of control
endpoint: median survival time, dose: 3.12 mg/kg/injection, schedule: Q01DX005 (ip), vehicle: saline
  T/C: 112 % of control
endpoint: median survival time, dose: 6.25 mg/kg/injection, schedule: Q01DX005 (ip), vehicle: saline
  T/C: 103 % of control
endpoint: median survival time, dose: 12.5 mg/kg/injection, schedule: Q01DX005 (ip), vehicle: saline
  T/C: 103 % of control

## CCC1(O)C(=O)OCc2c1cc1n(c2=O)Cc2cc3ccc(C#N)cc3nc2-1 (stereo not given)
endpoint: median survival time, dose: 2.5 mg/kg/injection, schedule: Q04DX002 (ip), vehicle: saline with Tween-80
  T/C: 152 % of control
endpoint: median survival time, dose: 5.0 mg/kg/injection, schedule: Q04DX002 (ip), vehicle: saline with Tween-80
  T/C: 196 % of control
endpoint: median survival time, dose: 10.0 mg/kg/injection, schedule: Q04DX002 (ip), vehicle: saline with Tween-80
  T/C: 250 % of control and 365 % of control
endpoint: median survival time, dose: 20.0 mg/kg/injection, schedule: Q04DX002 (ip), vehicle: saline with Tween-80
  T/C: 101 % of control and 103 % of control

## O=C1c2cc(Cl)ccc2OCC1Cl (stereo not given)
[16]
  T/C: 87 % of control
[17]
  T/C: 91 % of control
[18]
  T/C: 93 % of control

## O=S(=O)(O)O.[NH-]C(c1ccccc1)C([NH-])c1ccccc1.[Pt+2] (stereo not given)
[11]
  T/C: 192 % of control
[12]
  T/C: 234 % of control and 197 % of control

## CC1=CC(c2ccccc2)=CC(C)(C)C1 (tested in a mixture with another compound)
endpoint: mean survival time, dose: 25.0 mg/kg/injection, schedule: Q01DX009 (ip), vehicle: saline sonified
  T/C: 95 % of control
endpoint: mean survival time, dose: 50.0 mg/kg/injection, schedule: Q01DX009 (ip), vehicle: saline sonified
  T/C: 103 % of control
endpoint: mean survival time, dose: 100.0 mg/kg/injection, schedule: Q01DX009 (ip), vehicle: saline sonified
  T/C: 103 % of control
[1]
  T/C: 94 % of control

## COc1ccc2c(c1)C1(C)CCC(=O)C(C)C1CC2 (stereo not given)
[13]
  T/C: 94 % of control
[14]
  T/C: 96 % of control
[15]
  T/C: 96 % of control

## O=C(NCCF)NC1CCSc2ccccc21 (stereo not given)
endpoint: mean survival time, dose: 75.0 mg/kg/injection, schedule: Q01DX001 (ip), vehicle: other
  T/C: 101 % of control
endpoint: mean survival time, dose: 150.0 mg/kg/injection, schedule: Q01DX001 (ip), vehicle: other
  T/C: 103 % of control

## Cc1nc2c(N)nn(C)c2nc1C
[1]
  T/C: 95 % of control
[2]
  T/C: 101 % of control
[3]
  T/C: 101 % of control

## Cc1ccc(S(=O)(=O)OC2COC3C(OS(=O)(=O)c4ccc(C)cc4)COC23)cc1 (stereo not given)
[16]
  T/C: 93 % of control
[17]
  T/C: 89 % of control
[18]
  T/C: 88 % of control

## Cc1cccc(NC(=O)Nc2ccc(Oc3ccccc3Cl)c(S(=O)(=O)O)c2)c1
endpoint: mean survival time, dose: 50.0 mg/kg/injection, schedule: Q01DX009 (ip), vehicle: saline
  T/C: 101 % of control
endpoint: mean survival time, dose: 100.0 mg/kg/injection, schedule: Q01DX009 (ip), vehicle: saline
  T/C: 95 % of control
[4]
  T/C: 95 % of control
[5]
  T/C: 95 % of control

## CC1OC(n2cc(Br)c(=O)[nH]c2=O)C(O)C(O)C1O (stereo not given)
endpoint: mean survival time, dose: 12.5 mg/kg/injection, schedule: Q01DX005 (ip), vehicle: water
  T/C: 99 % of control
endpoint: mean survival time, dose: 25.0 mg/kg/injection, schedule: Q01DX005 (ip), vehicle: water
  T/C: 101 % of control
endpoint: mean survival time, dose: 50.0 mg/kg/injection, schedule: Q01DX005 (ip), vehicle: water
  T/C: 105 % of control
endpoint: mean survival time, dose: 100.0 mg/kg/injection, schedule: Q01DX005 (ip), vehicle: water
  T/C: 100 % of control
endpoint: mean survival time, dose: 200.0 mg/kg/injection, schedule: Q01DX005 (ip), vehicle: water
  T/C: 99 % of control

## CC(C#N)CCCC#N (stereo not given)
endpoint: mean survival time, dose: 25.0 mg/kg/injection, schedule: Q01DX009 (ip), vehicle: saline with Tween-80
  T/C: 100 % of control
[8]
  T/C: 102 % of control
[1]
  T/C: 101 % of control
